Test results reported in US7829063B2, “Development of molecular imaging probes for carbonic anhydrase-IX using click chemistry” (Siemens Medical Solutions USA, Inc., priority 2007, dated 2010).
Like-named read-outs stand apart in the source and are kept apart here.

Molecular target: T1, CA-IX (Homo sapiens, UniProt Q16790)
T1 construct: His tag (C); purchased R&D Systems Inc. 2188-CA; host or cells: mouse myeloma cell line NS0
Experiment: CA-IX combinatorial library screening, competitive fluorescence-based assay with dansylamide (DNSA)
Type: binding
Details: sample concentrations 100 nM and 1000 nM, DNSA 200 μM, screening at 1 μM; for inhibition at 1 µM: 1 h
Procedure: General. CA-IX human recombinant enzyme was expressed with a C-terminal His tag in a mouse myeloma cell line, NS0 (R&D Systems Inc., catalog number 2188-CA). The human red blood cells were obtained from Research Blood Components, LLC. All absorbance measurements were performed on a SPECTRA MAX M2 plate reader at 25° C. The LC/MS analyses were performed on an Agilent 1100 series LC/MSD (SL) using a 30×2.1 mm Zorbax C8 column with a Phenomenex C18 pre-column. Compound detection was accomplished by electrospray mass spectroscopy in positive selected ion mode (LC/MS-SIM). The elution solvents were acetonitrile and water, contained 0.05% TFA. Nuclear magnetic resonance (NMR) spectra were obtained on a Bruker AMX 300 MHz spectrometer or a Varian 400. 19F NMR spectra were recorded on a Bruker AMX 282.35 MHz or a Varian 400 spectrometer. The mass spectra were recorded on an Agilent 1100 series LC/MSD with electrospray mass spectroscopic detection. Flash column chromatography was performed on Merck silica gel (40-63 μm) using the solvent system indicated. The radiochemical and chemical purities were analyzed by RP-HPLC.
General Combinatorial Library Screening Protocol for CA-IX
The CA-IX screening assay was employed for testing libraries derived from the various “anchor” molecules, using ethoxzolamide as a positive control. The assay was performed at a substrate (dansylamide, DNSA) concentration of 200 μM, and sample concentrations of 100 nM and 1000 nM, respectively. A modified competitive fluorescence-based assay (A. Jain, S. G. Huang, G. M. Whitesides, J. Am. Chem. Soc. 1994, 116, 5057) was used to measure CA-IX activity. The enzymatic assay was carried out in a 96-well plate. To the wells, deionized water, 40 μL of phosphate buffer (250 mM, pH 7.4), 2.4 μL of CA-IX (17 μM), and 2 μL or 20 μL of inhibitor (concentration of 100 nM or 1000 nM) were added to achieve a final volume of 180 μL. Reactions were initiated by adding 20 μL DNSA (200 μM) to each well and the plate was incubated at 25° C. for 1 hour. The fluorescence intensities from each well of the plate were then read at 460 nm using a plate reader with an excitation wavelength of 290 nm.

[1] = Table 1, Libraries 1-3, read-out: In Vitro Binding Assay (Library Screening)
[2] = Table 2, Libraries 4-7, read-out: In Vitro Binding Assay (Library (Screening))

| SMILES | inhibition at 1 µM [1] [%] | inhibition at 1 µM [2] [%] | also measured |
| --- | --- | --- | --- |
| NS(=O)(=O)c1ccc(C(=O)NCc2cn(Cn3nnc4ccccc43)nn2)cc1 [DHK55] | < 40 |  |  |
| NS(=O)(=O)c1nc2ccc(OCc3cn([C@@H](Cc4ccccc4)C(=O)NCCCO)nn3)cc2s1 [DHK-2-65] |  | < 40 |  |
| NS(=O)(=O)c1ccc(-c2cn(CC(=O)NC(Cc3cnc[nH]3)C(=O)O)nn2)cc1 (stereo not shown) [DHK106] | < 40 |  |  |
| CC(CN(C)C)Cn1cc(-c2ccc(S(N)(=O)=O)cc2)nn1 (stereo not shown) [DHK14] | < 40 |  |  |
| CC(C)[C@@H](C(=O)NCc1ccccc1)n1cc(CNC(=O)c2ccc(S(N)(=O)=O)cc2)nn1 [DHK52] | < 40 |  |  |
| CC(C)[C@@H](C(=O)NCCSCc1ccc(CN(C)C)o1)n1cc(COc2ccc3nc(S(N)(=O)=O)sc3c2)nn1 [DHK-2-27] |  | < 40 |  |
| NS(=O)(=O)c1ccc(C(=O)NCc2cn(-c3ccnc4cc(Cl)ccc34)nn2)cc1 [DHK86] | < 40 |  |  |
| NS(=O)(=O)c1ccc(-c2cn([C@@H](Cc3ccccc3)C(=O)N3CCC(CCO)CC3)nn2)cc1 [DHK-2-18] |  | < 40 |  |
| CCCCCC[C@H](O)[C@@H](O)c1ccc(Cn2cc(-c3ccc(S(N)(=O)=O)cc3)nn2)cc1 [DHK70] | < 40 |  |  |
| NS(=O)(=O)c1nc2ccc(OCc3cn([C@@H](Cc4ccccc4)C(=O)NCC4CC4)nn3)cc2s1 [DHK-2-64] |  | < 40 |  |
| COC(=O)[C@H](C)NC(=O)[C@H](Cc1ccccc1)n1cc(-c2ccc(S(N)(=O)=O)cc2)nn1 [DHK-2-10] |  | < 40 |  |
| NS(=O)(=O)c1ccc(C(=O)NCc2cn(-c3cccc(C(=O)NN4CCOCC4)c3)nn2)cc1 [DHK39] | < 40 |  |  |
| COC(=O)C(NC(=O)[C@H](Cc1ccccc1)n1cc(COc2ccc3nc(S(N)(=O)=O)sc3c2)nn1)C(C)C (stereo partly shown) [DHK-2-60] |  | < 40 |  |
| NS(=O)(=O)c1ccc(-c2cn([C@@H](Cc3ccccc3)C(=O)NCc3ccc(-c4ccccn4)s3)nn2)cc1 [DHK-2-5] |  | < 40 |  |
| CC(C)[C@@H](C(=O)NCC1CC1)n1cc(COc2ccc3nc(S(N)(=O)=O)sc3c2)nn1 [DHK-2-37] |  | < 40 |  |
| CC(C)[C@@H](C(=O)NCc1ccc(F)cc1)n1cc(COc2ccc3nc(S(N)(=O)=O)sc3c2)nn1 [DHK-2-25] |  | < 40 |  |
| COc1ccc2nc3cc(Cl)ccc3c(NCCCn3cc(-c4ccc(S(N)(=O)=O)cc4)nn3)c2c1 [DHK24] | < 40 |  |  |
| NS(=O)(=O)c1ccc(-c2cn([C@@H](Cc3ccccc3)C(=O)NCC3COc4ccccc4O3)nn2)cc1 (stereo partly shown) [DHK-2-20] |  | < 40 |  |
| NS(=O)(=O)c1ccc(-c2cn(C3CCN(C(=O)/C=C/c4ccccc4)CC3)nn2)cc1 [DHK82] | < 40 |  |  |
| Cc1cc(NC(=O)Cn2cc(-c3ccc(S(N)(=O)=O)cc3)nn2)n(C)n1 [DHK26] | < 40 |  |  |
| CC(C)C(C(=O)NCCc1ccsc1)n1cc(-c2ccc(S(N)(=O)=O)cc2)nn1 (stereo not shown) [DHK76] | < 40 |  |  |

| SMILES | inhibition at 1 µM [1] [%] | inhibition at 1 µM [2] [%] | also measured |
| --- | --- | --- | --- |
| CC(C)[C@@H](C(=O)NCCc1ccsc1)n1cc(COc2ccc3nc(S(N)(=O)=O)sc3c2)nn1 [DHK139] | < 40 |  |  |
| CC(C)[C@@H](C(=O)NCC1COc2ccccc2O1)n1cc(-c2ccc(S(N)(=O)=O)cc2)nn1 (stereo partly shown) [DHK187] |  | < 40 |  |
| CCOC(=O)c1ccc(Cn2cc(-c3ccc(S(N)(=O)=O)cc3)nn2)cc1 [DHK22] | < 40 |  |  |
| NS(=O)(=O)c1ccc(C(=O)NCc2cn(Cn3c(=S)sc4ccccc43)nn2)cc1 [DHK48] | < 40 |  |  |
| CC(C)[C@@H](C(=O)N1CCC(N2CCCC2)CC1)n1cc(-c2ccc(S(N)(=O)=O)cc2)nn1 [DHK188] |  | < 40 |  |
| NS(=O)(=O)c1ccc(-c2cn(Cc3cccc(Br)c3)nn2)cc1 [DHK18] | < 40 |  |  |
| NS(=O)(=O)c1nc2ccc(OCc3cn(C4CCN(C(=O)/C=C/c5ccccc5)CC4)nn3)cc2s1 [DHK144] | < 40 |  |  |
| NS(=O)(=O)c1nc2ccc(OCc3cn(CCN4CCOCC4)nn3)cc2s1 [DHK114] | < 40 |  |  |
| NS(=O)(=O)c1ccc(-c2cn([C@@H](Cc3ccccc3)C(=O)N3CCN(c4ncccn4)CC3)nn2)cc1 [DHK-2-4] |  | < 40 |  |
| CC1CCCN(C(=O)C(C(C)C)n2cc(COc3ccc4nc(S(N)(=O)=O)sc4c3)nn2)C1 (stereo not shown) [DHK119] | < 40 |  |  |
| NS(=O)(=O)c1ccc(-c2cn(Cc3nc4ccccc4[nH]3)nn2)cc1 [DHK27] | < 40 |  |  |
| NS(=O)(=O)c1ccc(-c2cn(CC(=O)Nc3nccs3)nn2)cc1 [DHK101] | < 40 |  |  |
| CC(C)[C@@H](C(=O)N[C@@H]1c2ccccc2C[C@@H]1O)n1cc(COc2ccc3nc(S(N)(=O)=O)sc3c2)nn1 [DHK-2-43] |  | < 40 |  |
| NS(=O)(=O)c1ccc(-c2cn(CCC(=O)Nc3ccccc3)nn2)cc1 [DHK102] | < 40 |  |  |
| CC(C)[C@@H](C(=O)NCc1ccc(F)cc1)n1cc(-c2ccc(S(N)(=O)=O)cc2)nn1 [DHK165] |  | < 40 |  |
| NS(=O)(=O)c1ccc(-c2cn(-c3ccnc4cc(Cl)ccc34)nn2)cc1 [DHK71] | < 40 |  |  |
| CC(C)[C@@H](C(=O)NC1CCCCC1)n1cc(COc2ccc3nc(S(N)(=O)=O)sc3c2)nn1 [DHK124] | < 40 |  |  |
| NS(=O)(=O)c1ccc(-c2cn(CC(=O)N3CCN(c4cc(Cl)cc(Cl)c4)CC3)nn2)cc1 [DHK107] | < 40 |  |  |
| NS(=O)(=O)c1nc2ccc(OCc3cn(-c4cccc(C(=O)NN5CCOCC5)c4)nn3)cc2s1 [DHK116] | < 40 |  |  |
| NS(=O)(=O)c1nc2ccc(OCc3cn([C@@H](Cc4ccccc4)C(=O)N4CCN(c5ccccn5)CC4)nn3)cc2s1 [DHK-2-58] |  | < 40 |  |
| CC(C)[C@@H](C(=O)NC1CCCCC1)n1cc(-c2ccc(S(N)(=O)=O)cc2)nn1 [DHK179] |  | < 40 |  |

| SMILES | inhibition at 1 µM [1] [%] | inhibition at 1 µM [2] [%] | also measured |
| --- | --- | --- | --- |
| Cc1ccc(C)c(CNC(=O)[C@H](Cc2ccccc2)n2cc(CNC(=O)c3ccc(S(N)(=O)=O)cc3)nn2)c1 [DHK45] | < 40 |  |  |
| CC(C)C(C(=O)NCCCN1CCOCC1)n1cc(CNC(=O)c2ccc(S(N)(=O)=O)cc2)nn1 (stereo not shown) [DHK58] | < 40 |  |  |
| NS(=O)(=O)c1nc2ccc(OCc3cn([C@@H](Cc4ccccc4)C(=O)N[C@@H]4c5ccccc5C[C@@H]4O)nn3)cc2s1 [DHK-2-70] |  | < 40 |  |
| CCOC(=O)C1CCN(C(=O)[C@H](C(C)C)n2cc(COc3ccc4nc(S(N)(=O)=O)sc4c3)nn2)CC1 [DHK-2-41] |  |  | In Vitro Binding Assay (Library Screening) (Table 2, Libraries 4-7): √ |
| CC(C)[C@@H](C(=O)NCCCO)n1cc(-c2ccc(S(N)(=O)=O)cc2)nn1 [DHK181] |  | < 40 |  |
| COC(=O)[C@H](CSCc1ccccc1)NC(=O)Cn1cc(-c2ccc(S(N)(=O)=O)cc2)nn1 [DHK4] | < 40 |  |  |
| CC(C)[C@@H](C(=O)Nc1ccc(-c2ccccc2)cc1)n1cc(CNC(=O)c2ccc(S(N)(=O)=O)cc2)nn1 [DHK61] | < 40 |  |  |
| Cc1onc(-c2ccccc2)c1CNC(=O)[C@H](C(C)C)n1cc(COc2ccc3nc(S(N)(=O)=O)sc3c2)nn1 [DHK-2-39] |  | < 40 |  |
| CC(C)[C@H](C(=O)NCc1ccccc1)n1cc(-c2ccc(S(N)(=O)=O)cc2)nn1 [DHK23] | < 40 |  |  |
| CC(C)C[C@@H](C(=O)NCc1ccccc1)n1cc(CNC(=O)c2ccc(S(N)(=O)=O)cc2)nn1 [DHK41] | < 40 |  |  |
| CCCOC(=O)c1ccc(NC(=O)Cn2cc(CNC(=O)c3ccc(S(N)(=O)=O)cc3)nn2)cc1 [DHK57] | < 40 |  |  |
| NS(=O)(=O)c1ccc(-c2cn([C@@H](Cc3ccccc3)C(=O)N3CCN(c4ccccn4)CC3)nn2)cc1 [DHK-2-7] |  | < 40 |  |
| CC(C)C[C@@H](C(=O)NCc1ccccc1)n1cc(COc2ccc3nc(S(N)(=O)=O)sc3c2)nn1 [DIIK118] | < 40 |  |  |
| COC(=O)C(Cc1ccc(C(=O)O)cc1)n1cc(-c2ccc(S(N)(=O)=O)cc2)nn1 (stereo not shown) [DHK67] | < 40 |  |  |
| NS(=O)(=O)c1ccc(C(=O)NCc2cn(C3CCN(C(=O)/C=C/c4ccccc4)CC3)nn2)cc1 [DHK97] | < 40 |  |  |
| CCOC(=O)c1ccc(Cn2cc(CNC(=O)c3ccc(S(N)(=O)=O)cc3)nn2)cc1 [DHK51] | < 40 |  |  |
| CC(C)[C@@H](C(=O)N1CCN(CCO)CC1)n1cc(COc2ccc3nc(S(N)(=O)=O)sc3c2)nn1 [DHK-2-42] |  | < 40 |  |
| NS(=O)(=O)c1nc2ccc(OCc3cn(CCCCCCO)nn3)cc2s1 [DHK137] | < 40 |  |  |
| NS(=O)(=O)c1ccc(-c2cn([C@@H](Cc3ccccc3)C(=O)N3CCC(N4CCCC4)CC3)nn2)cc1 [DHK-2-21] |  | < 40 |  |
